Laboratory results published in ChEMBL document CHEMBL1201862, “PubChem BioAssay data set” (2004).
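1) Cells in 96-well plates. 2) Compound, 48 h, 5 concentrations. 3) Linear interpolation between surrounding doses. 4) Unreached endpoint = highest concentration. GI50: concentration for 50% inhibition of growth.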 Activity calls are given as the source filed them. Rule as the data show it: active = GI50 up to about 1.1 µM and inactive = higher.

Tests used:
Assay in all cases: NCI-60 cell line screen, 48 h
HT-29 = test system: HT-29
A498 = test system: A498
M14 = test system: M14
SK-MEL-28 = test system: SK-MEL-28
OVCAR-8 = test system: OVCAR-8
SK-OV-3 = test system: SK-OV-3
UO-31 = test system: UO-31
TK-10 = test system: TK-10
Malme-3M = test system: Malme-3M
LOX IMVI = test system: LOX IMVI
SK-MEL-2 = test system: SK-MEL-2
T47D = test system: T47D
SF-539 = test system: SF-539
HL-60 = test system: HL-60
HOP-92 = test system: HOP-92
COLO 205 = test system: COLO 205
NCI-H460 = test system: NCI-H460
HCC 2998 = test system: HCC 2998
HCT-15 = test system: HCT-15
OVCAR-4 = test system: OVCAR-4

Which results are given for `COC(=O)C(=O)C(C(=O)C(=O)Nc1ccc(Cl)c(Cl)c1)c1nc2ccc(C(=O)c3ccccc3)cc2nc1O` (centres undefined)?
GI50 (HT-29): 44.2 µM (inactive); GI50 (A498): > 100 µM (inactive); GI50 (M14): 67.3 µM (inactive); GI50 (SK-MEL-28): 85.3 µM (inactive); GI50 (OVCAR-8): 40.6 µM (inactive); GI50 (SK-OV-3): 97.3 µM (inactive); GI50 (UO-31): 26.4 µM (inactive); GI50 (TK-10): > 100 µM (inactive); GI50 (Malme-3M): 73.8 µM (inactive); GI50 (LOX IMVI): 59.3 µM (inactive); GI50 (SK-MEL-2): 97.9 µM (inactive); GI50 (T47D): 49 µM (inactive); GI50 (SF-539): 62.2 µM (inactive); GI50 (HL-60): 45 µM (inactive); GI50 (HOP-92): > 100 µM (inactive)

For `OC1(c2ccccc2)C2CC=CC2C1(c1ccccc1)c1ccccc1` (centres undefined), which GI50 (HT-29) is on record?
Its GI50 is 18.4 µM (inactive).

And the GI50 (A498)?
Its GI50 is 15.8 µM (inactive).

And the GI50 (M14)?
The GI50 was 32.7 µM (inactive).

And the GI50 (SK-MEL-28)?
Its GI50 is 40.1 µM (inactive).

What about the GI50 (OVCAR-8) of the same molecule?
Its GI50 is 40.2 µM (inactive).

What about the GI50 (SK-OV-3) of the same molecule?
Its GI50 is 38.9 µM (inactive).

And the GI50 (UO-31)?
The GI50 was 31.1 µM (inactive).

And the GI50 (TK-10)?
Its GI50 is 29.6 µM (inactive).

And the GI50 (Malme-3M)?
Its GI50 is 19.5 µM (inactive).

And the GI50 (LOX IMVI)?
Its GI50 is 18 µM (inactive).

And the GI50 (SK-MEL-2)?
The GI50 was 12 µM (inactive).

And the GI50 (COLO 205)?
Its GI50 is 18.4 µM (inactive).

What about the GI50 (NCI-H460) of the same molecule?
Its GI50 is 27 µM (inactive).

And the GI50 (HCC 2998)?
The GI50 was 19.8 µM (inactive).

What about the GI50 (T47D) of the same molecule?
Its GI50 is 23.1 µM (inactive).

What about the GI50 (SF-539) of the same molecule?
The GI50 was 77.1 µM (inactive).

And the GI50 (HCT-15)?
The GI50 was 28.6 µM.

What about the GI50 (HL-60) of the same molecule?
Its GI50 is 27.8 µM (inactive).

What about the GI50 (HOP-92) of the same molecule?
Its GI50 is 33.3 µM (inactive).

Which GI50 (HT-29) does the source give for `Cc1nn(C(=O)Cc2ccccc2)c2c1C(c1ccc([N+](=O)[O-])cc1)SC(=N)N2` (centres undefined) here?
Its GI50 is > 100 µM (inactive).

And the GI50 (A498)?
Its GI50 is > 100 µM (inactive).

And the GI50 (M14)?
Its GI50 is > 100 µM (inactive).

And the GI50 (SK-MEL-28)?
Its GI50 is > 100 µM (inactive).

And the GI50 (OVCAR-8)?
Its GI50 is > 100 µM (inactive).

And the GI50 (SK-OV-3)?
Its GI50 is > 100 µM (inactive).

What about the GI50 (TK-10) of the same molecule?
The GI50 was > 100 µM (inactive).

And the GI50 (Malme-3M)?
Its GI50 is > 100 µM (inactive).

And the GI50 (LOX IMVI)?
Its GI50 is > 100 µM (inactive).

What about the GI50 (COLO 205) of the same molecule?
Its GI50 is > 100 µM (inactive).

What about the GI50 (NCI-H460) of the same molecule?
The GI50 was > 100 µM (inactive).

And the GI50 (HCC 2998)?
Its GI50 is > 100 µM (inactive).

What about the GI50 (T47D) of the same molecule?
The GI50 was > 100 µM (inactive).

What about the GI50 (SF-539) of the same molecule?
Its GI50 is > 100 µM (inactive).

And the GI50 (HCT-15)?
Its GI50 is over 100 µM.

What about the GI50 (HL-60) of the same molecule?
Its GI50 is > 100 µM (inactive).

With `S=c1nc(N2CCCCC2)c2cn[nH]c2[nH]1` as the molecule, how does the GI50 (HT-29) read?
Its GI50 is 41.8 µM (inactive).

What about the GI50 (A498) of the same molecule?
The GI50 was > 100 µM (inactive).

What about the GI50 (M14) of the same molecule?
Its GI50 is 74 µM (inactive).

And the GI50 (SK-MEL-28)?
The GI50 was 65.6 µM (inactive).

And the GI50 (OVCAR-8)?
The GI50 was 64.9 µM (inactive).

What about the GI50 (UO-31) of the same molecule?
The GI50 was 23.9 µM (inactive).

And the GI50 (TK-10)?
Its GI50 is 39.2 µM (inactive).

And the GI50 (Malme-3M)?
The GI50 was 64.9 µM (inactive).

And the GI50 (LOX IMVI)?
Its GI50 is 39.4 µM (inactive).

What about the GI50 (SK-MEL-2) of the same molecule?
The GI50 was 20.1 µM (inactive).

What about the GI50 (COLO 205) of the same molecule?
Its GI50 is 28.8 µM (inactive).

And the GI50 (NCI-H460)?
Its GI50 is 42.3 µM (inactive).

And the GI50 (OVCAR-4)?
Its GI50 is 93.5 µM (inactive).

And the GI50 (HCC 2998)?
The GI50 was 44 µM (inactive).

What about the GI50 (T47D) of the same molecule?
The GI50 was 59.6 µM (inactive).

And the GI50 (SF-539)?
The GI50 was 52.6 µM (inactive).

What about the GI50 (HCT-15) of the same molecule?
The GI50 was 87.9 µM.

And the GI50 (HL-60)?
The GI50 was 19.6 µM (inactive).

Which GI50 (HT-29) does the source give for `Nc1ncc2c(n1)-c1ccccc1OC2N1CCCCC1` (centres undefined) here?
Its GI50 is > 100 µM (inactive).

What about the GI50 (A498) of the same molecule?
The GI50 was > 100 µM (inactive).

And the GI50 (M14)?
Its GI50 is > 100 µM (inactive).

What about the GI50 (OVCAR-8) of the same molecule?
The GI50 was > 100 µM (inactive).

And the GI50 (SK-OV-3)?
Its GI50 is > 100 µM (inactive).

And the GI50 (UO-31)?
The GI50 was > 100 µM (inactive).

What about the GI50 (TK-10) of the same molecule?
The GI50 was > 100 µM (inactive).

And the GI50 (LOX IMVI)?
The GI50 was > 100 µM (inactive).

What about the GI50 (SK-MEL-2) of the same molecule?
The GI50 was > 100 µM (inactive).

And the GI50 (COLO 205)?
Its GI50 is > 100 µM (inactive).

And the GI50 (NCI-H460)?
Its GI50 is > 100 µM (inactive).

What about the GI50 (OVCAR-4) of the same molecule?
The GI50 was > 100 µM (inactive).

What about the GI50 (T47D) of the same molecule?
Its GI50 is > 100 µM (inactive).

What about the GI50 (SF-539) of the same molecule?
Its GI50 is > 100 µM (inactive).

And the GI50 (HCT-15)?
The GI50 was over 100 µM.

And the GI50 (HL-60)?
The GI50 was > 100 µM (inactive).

And the GI50 (HOP-92)?
The GI50 was > 100 µM (inactive).

How did the GI50 (HT-29) turn out when `Nc1nc(N)c2cc(-c3cc4ccccc4[nH]3)ccc2n1` was run?
The GI50 was 15.5 µM (inactive).

What about the GI50 (A498) of the same molecule?
The GI50 was 18.1 µM (inactive).

What about the GI50 (M14) of the same molecule?
Its GI50 is 17.6 µM (inactive).

What about the GI50 (SK-MEL-28) of the same molecule?
The GI50 was 22.2 µM (inactive).

And the GI50 (OVCAR-8)?
The GI50 was 32.5 µM (inactive).

And the GI50 (SK-OV-3)?
Its GI50 is 45.3 µM (inactive).

And the GI50 (UO-31)?
Its GI50 is 15.7 µM (inactive).

And the GI50 (TK-10)?
The GI50 was 17.7 µM (inactive).

And the GI50 (Malme-3M)?
The GI50 was 16 µM (inactive).

What about the GI50 (LOX IMVI) of the same molecule?
The GI50 was 18.5 µM (inactive).

And the GI50 (SK-MEL-2)?
Its GI50 is 18.2 µM (inactive).

What about the GI50 (COLO 205) of the same molecule?
The GI50 was 10.3 µM (inactive).

What about the GI50 (NCI-H460) of the same molecule?
Its GI50 is 19.2 µM (inactive).

What about the GI50 (OVCAR-4) of the same molecule?
Its GI50 is 21.9 µM (inactive).

And the GI50 (T47D)?
Its GI50 is 3.48 µM (inactive).

What about the GI50 (SF-539) of the same molecule?
Its GI50 is 19.5 µM (inactive).

What about the GI50 (HCT-15) of the same molecule?
Its GI50 is 22.1 µM.

And the GI50 (HL-60)?
Its GI50 is 19.7 µM (inactive).

What about the GI50 (HOP-92) of the same molecule?
The GI50 was 12.2 µM (inactive).
